The values below come from PubChem BioAssay (NCI).

Several values for one entry are separate records, joined by “and”; a condition that tells them apart may be missing. Equal entries are not always repeated.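 Method: 48-hour compound exposure of cells in 96-well plates, five concentrations, linear interpolation of endpoints. At the GI50, growth is halved. TGI marks complete inhibition of growth.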

Test systems include MALME-3M melanoma; LOX IMVI melanoma; HCT-116 colon; HS 578T breast; NCI-H460 lung; KM12 colon; MDA-MB-435; COLO 205 colon; SN12C renal; HT29 colon.
What all share (assay): NCI anticancer screen, dose series, 48 h

As to `CCOC(=O)c1c(C)n(CCN2CCN(C)CC2)c2ccc(OC)cc12`, the TGI is 74.6 µM in the experiment with MALME-3M melanoma; 35.1 µM in the experiment with LOX IMVI melanoma; > 100 µM in the experiment on HCT-116 colon; > 100 µM with HS 578T breast; > 100 µM in the experiment with NCI-H460 lung; > 100 µM with KM12 colon. In addition, the TGI in the experiment with MDA-MB-435 was 56.2 µM; in the experiment with COLO 205 colon, 31.6 µM; with SN12C renal, > 100 µM; in the experiment on HT29 colon it was 71.2 µM.
As for `NC(=O)Nc1n[nH]c(-c2ccccc2)n1`, the TGI in the experiment on MALME-3M melanoma, in the experiment on LOX IMVI melanoma, with HCT-116 colon, in the experiment on HS 578T breast, in the experiment on NCI-H460 lung and with KM12 colon was > 100 µM throughout. The TGI in the experiment with MDA-MB-435, with COLO 205 colon, in the experiment on SN12C renal and with HT29 colon was > 100 µM each time.
As to `COc1cc(/C=C2\N=C(c3ccccc3)N(c3ccc(C(=O)c4ccccc4)cc3N3C(=O)/C(=C/c4cc(OC)c(OC)c(OC)c4)N=C3c3ccccc3)C2=O)cc(OC)c1OC`, the TGI in the experiment on MALME-3M melanoma is 41.3 µM; in the experiment with LOX IMVI melanoma it was 39.2 µM; in the experiment on HCT-116 colon, 52.2 µM; with HS 578T breast, 74.8 µM; with NCI-H460 lung it was 23.8 µM; with KM12 colon it was 48.9 µM. The TGI in the experiment with MDA-MB-435 was determined as 18.5 µM; in the experiment with COLO 205 colon it was 30 µM; with SN12C renal, 89.1 µM; in the experiment on HT29 colon it was 92 µM.
`OCC(CO)CC1COc2ccccc2O1` (stereo unspecified): the TGI with MALME-3M melanoma, in the experiment with LOX IMVI melanoma, in the experiment on HCT-116 colon, in the experiment with HS 578T breast, with NCI-H460 lung and in the experiment on KM12 colon was > 10 µM in each case. In addition, the TGI in the experiment on MDA-MB-435, in the experiment on COLO 205 colon, in the experiment with SN12C renal and in the experiment with HT29 colon was > 10 µM in each case.
For `CCOC(=O)C1C2C1C1C(C(=O)OCC)C21` (stereo unspecified), the TGI in the experiment on MALME-3M melanoma, in the experiment with LOX IMVI melanoma, in the experiment with HCT-116 colon, with HS 578T breast, with NCI-H460 lung and in the experiment on KM12 colon was > 100 µM each time. Besides, the TGI with MDA-MB-435, in the experiment with COLO 205 colon, with SN12C renal and with HT29 colon was > 100 µM each time.
For the molecule `Cc1nc2ccccc2n1CCc1nc2ccccc2[nH]1`, the TGI in the experiment on MALME-3M melanoma, in the experiment on LOX IMVI melanoma, in the experiment with HCT-116 colon, in the experiment with HS 578T breast, in the experiment on NCI-H460 lung and in the experiment on KM12 colon was > 100 µM in each case. In addition, the TGI in the experiment on MDA-MB-435, in the experiment on COLO 205 colon, in the experiment with SN12C renal and in the experiment with HT29 colon was > 100 µM throughout.
With `CCCS(=O)OC1C(C2COC(C)(C)O2)OC2OC(C)(C)OC21` (stereo unspecified), the TGI in the experiment with MALME-3M melanoma was 18 µM; in the experiment with LOX IMVI melanoma, 21.4 µM; in the experiment with HCT-116 colon, 19.4 µM; in the experiment on HS 578T breast, > 100 µM; in the experiment on NCI-H460 lung, > 62.1 µM; in the experiment on KM12 colon it was 28.2 µM. The TGI was 23.4 µM with MDA-MB-435, 27.2 µM in the experiment on COLO 205 colon, 31.8 µM with SN12C renal and 17.9 µM in the experiment on HT29 colon.
For the molecule `COc1cc(/C=C/C=C2\CC(C)C/C(=C\C=C\c3ccc(O)c(OC)c3)C2=O)ccc1O` (stereo unspecified), the TGI in the experiment on MALME-3M melanoma was 31.1 µM; in the experiment on LOX IMVI melanoma it was 65.1 µM; with HCT-116 colon, > 100 µM; with HS 578T breast, > 100 µM; in the experiment with NCI-H460 lung it was 92.3 µM; in the experiment on KM12 colon, > 100 µM. For the same molecule, the TGI is 41 µM in the experiment on MDA-MB-435, > 100 µM in the experiment on COLO 205 colon, > 100 µM with SN12C renal and 31 µM in the experiment with HT29 colon.
As to `Cc1nc(-c2ccc(Cl)cc2)cn2c1nc1ccccc12`, the TGI in the experiment with MALME-3M melanoma, in the experiment on LOX IMVI melanoma, with HCT-116 colon, in the experiment with HS 578T breast, in the experiment on NCI-H460 lung and with KM12 colon was > 100 µM throughout. Moreover, the TGI with MDA-MB-435, in the experiment on COLO 205 colon, in the experiment on SN12C renal and in the experiment on HT29 colon was > 100 µM each time.
For the molecule `OCC1=C[C@@](COCc2ccccc2)(OCc2ccccc2)[C@@H](OCc2ccccc2)[C@@H]1OCc1ccccc1`, the TGI came out at 44.6 µM with MALME-3M melanoma; 21.9 µM in the experiment on LOX IMVI melanoma; 47 µM in the experiment on HCT-116 colon; 87.6 µM in the experiment with HS 578T breast; 53.1 µM in the experiment on NCI-H460 lung; 56.6 µM with KM12 colon. Also, the TGI with MDA-MB-435 came out at 27.4 µM; with COLO 205 colon, 23.9 µM; in the experiment with SN12C renal, 10.3 µM; in the experiment on HT29 colon, 35.6 µM.
As for `CC[N+]1(C)CCC(O)(/C=C/c2ccc(Cl)c(Cl)c2)C(C(=O)/C=C/c2ccc(Cl)c(Cl)c2)C1` (stereo unspecified), the TGI is 4.6 µM in the experiment on MALME-3M melanoma; 2.84 µM in the experiment with LOX IMVI melanoma; 3 µM in the experiment on HCT-116 colon; 7.66 µM in the experiment with HS 578T breast; 9.03 µM in the experiment on NCI-H460 lung; 6.69 µM with KM12 colon. For the same molecule, the TGI in the experiment on MDA-MB-435 is 5.01 µM; with COLO 205 colon it was 10.2 µM; in the experiment with SN12C renal, 3.61 µM; in the experiment with HT29 colon, 4.53 µM.
For `C1CN(C23OC4(N5CCOCC5)C5C6CC(C7C6C4C72)C53)CCO1` (stereo unspecified), the TGI with MALME-3M melanoma, with LOX IMVI melanoma, in the experiment with HCT-116 colon, in the experiment with HS 578T breast, with NCI-H460 lung and with KM12 colon was > 100 µM in each case. Moreover, the TGI with MDA-MB-435, in the experiment on COLO 205 colon, in the experiment with SN12C renal and in the experiment on HT29 colon was > 100 µM throughout.
With `NCCCN1CCN(CCCNc2ccc3ncn4c5ccccc5c(=O)c2c34)CC1`, the TGI with MALME-3M melanoma came to 6.27 µM; with LOX IMVI melanoma, 4.07 µM; in the experiment with HCT-116 colon, 18.3 µM; with HS 578T breast, 22.1 µM; in the experiment on NCI-H460 lung, 6.24 µM; in the experiment on KM12 colon, 13.1 µM. Moreover, the TGI with MDA-MB-435 is > 25 µM; in the experiment on COLO 205 colon, 2.66 µM; with SN12C renal, 3.68 µM; in the experiment on HT29 colon, 6.7 µM.
On to `CCn1c2ccccc2c2cc(NC(=O)c3c(C)[nH]c(=O)[nH]c3=S)ccc21`, for which the TGI was > 100 µM in the experiment on MALME-3M melanoma; > 100 µM in the experiment on LOX IMVI melanoma; > 100 µM with HCT-116 colon; > 100 µM with HS 578T breast; > 100 µM in the experiment on NCI-H460 lung; 64.5 µM with KM12 colon. Also, the TGI in the experiment on MDA-MB-435 was 84 µM; with COLO 205 colon it was 46.3 µM; in the experiment with SN12C renal, > 100 µM; with HT29 colon, > 100 µM.
As to `C=CC(=O)N1C/C(=C\c2ccc(F)cc2)C(=O)/C(=C/c2ccc(F)cc2)C1`, the TGI with MALME-3M melanoma amounted to 2.41 µM; in the experiment with LOX IMVI melanoma it was 0.415 µM; in the experiment on HCT-116 colon, 0.105 µM; in the experiment with HS 578T breast, 0.876 µM; in the experiment on NCI-H460 lung, 2.04 µM; in the experiment on KM12 colon, 0.434 µM. For the same molecule, the TGI with MDA-MB-435 worked out at 1.29 µM; in the experiment on COLO 205 colon, 1.81 µM; in the experiment with SN12C renal it was 0.936 µM; in the experiment on HT29 colon, 0.285 µM.
In the case of `O=C1C(=O)C(CCCO)(CCCO)CCCCCCCCC1(CCCO)CCCO`, the TGI in the experiment with MALME-3M melanoma, with LOX IMVI melanoma, in the experiment with HCT-116 colon, in the experiment with HS 578T breast, in the experiment on NCI-H460 lung and in the experiment on KM12 colon was > 100 µM in each case. In addition, the TGI in the experiment on MDA-MB-435, in the experiment on COLO 205 colon, in the experiment on SN12C renal and with HT29 colon was > 100 µM each time.
With `COc1ccc(C2=C(N)c3ccccc3C2=O)cc1`, the TGI was > 100 µM in the experiment on MALME-3M melanoma; > 100 µM in the experiment on LOX IMVI melanoma; > 100 µM in the experiment with HCT-116 colon; 63.9 µM in the experiment with HS 578T breast; > 100 µM in the experiment with NCI-H460 lung; > 100 µM in the experiment with KM12 colon. Further, the TGI in the experiment on MDA-MB-435, in the experiment with COLO 205 colon, in the experiment on SN12C renal and in the experiment with HT29 colon was > 100 µM throughout.
In the case of `Nc1ncnc2c(C3OC(CO)C(O)C3O)c[nH]c12` (stereo unspecified), the values for the GI50 with MALME-3M melanoma, in the experiment on HS 578T breast and in the experiment on COLO 205 colon were 0.011 µM, 0.0247 µM and 0.0193 µM, respectively. In addition, the TGI is 0.0868 µM and 0.0571 µM in the experiment on MALME-3M melanoma; 0.0274 µM and < 0.0155 µM in the experiment with LOX IMVI melanoma; 0.16 µM in the experiment with HCT-116 colon; 0.048 µM and 0.0128 µM in the experiment with NCI-H460 lung; 0.396 µM and 0.465 µM in the experiment with KM12 colon; 0.182 µM and 0.125 µM in the experiment on MDA-MB-435. Moreover, the TGI with SN12C renal was 0.0946 µM and 0.537 µM; in the experiment with HT29 colon, 0.343 µM and 1.21 µM.
`C=C1C[C@]23CC[C@@H]4C(CO)(CO)CC(=O)C[C@]4(C)[C@@H]2C(O)C[C@H]1C3` (stereo partly specified): the TGI in the experiment on MALME-3M melanoma, in the experiment with LOX IMVI melanoma, with HCT-116 colon, in the experiment with HS 578T breast, in the experiment with NCI-H460 lung and in the experiment on KM12 colon was > 100 µM throughout. The TGI in the experiment on MDA-MB-435, in the experiment with COLO 205 colon, in the experiment on SN12C renal and in the experiment on HT29 colon was > 100 µM in each case.
As for `Clc1cccc(Cl)c1C1ON=C(c2ccccc2)N1C12CC3CC(CC(C3)C1)C2` (stereo unspecified), the TGI in the experiment on MALME-3M melanoma is 47 µM; in the experiment on LOX IMVI melanoma, 63.7 µM; with HCT-116 colon, 59.9 µM; with HS 578T breast, 87.2 µM; in the experiment on NCI-H460 lung, > 100 µM; with KM12 colon it was 30.8 µM. Besides, the TGI in the experiment on MDA-MB-435 is > 100 µM; with COLO 205 colon it was 30.5 µM; with SN12C renal, > 100 µM; in the experiment with HT29 colon it was > 100 µM.
Consider `CC(CN(C)C)C(O)(c1ccccc1)c1ccccc1` (stereo unspecified), for which the TGI in the experiment on MALME-3M melanoma, in the experiment with LOX IMVI melanoma, in the experiment with HCT-116 colon, in the experiment on HS 578T breast, in the experiment on NCI-H460 lung and in the experiment with KM12 colon was > 100 µM each time. In addition, the TGI in the experiment on MDA-MB-435, in the experiment with COLO 205 colon, in the experiment on SN12C renal and in the experiment with HT29 colon was > 100 µM each time.
